Data: publication PMC9767416, “Discovery of small molecule mechanistic target of rapamycin inhibitors as anti-aging and anti-cancer therapeutics” (Frontiers in Aging Neuroscience, 2022)
Converted amounts (≈) assume the structure as drawn. Where two headings read alike, the source gives them in different places. Marks after values point to notes of the source that are not given here.

What was measured:
[1] = Dissociation constants by spectrophotometric titration; format: physicochemical; details: 20°C; for pKa: ultrapure water
Method: The spectrophotometric titration was used for dissociation constants’ determination, utilizing spectrophotometer Agilent Cary-60 (Agilent Technologies, CA, USA), pH meter WTW InoLab_IDS Multi 9430 (WTW, Czech Republic), and pH electrode SenTix® Mic (WTW, Czech Republic). Data were analyzed by GraphPadPrism 8.0 software (GraphPad Software, CA, USA). The analyzed samples were prepared by adding 20 μL of compound stock solution (2 mg/mL) and 20 μL of 0.1 M hydrochloric acid into the cuvette with ultrapure water (total volume 3.5 mL). The samples were titrated by 0.1 M sodium hydroxide at 20°C while acquiring absorption spectra (190–500 nm) at different pH values. Absorbance at the chosen wavelength was plotted as a function of pH. The inflection point in the given plot was used for pKa value determination.

[2] = Shake-flask partition coefficient logP and distribution coefficient logD (pH 7.4); format: physicochemical; details: for logD: n-octanol/sodium phosphate buffer pH 7.4; for logP: n-octanol/water
Method: Before the initiation of the intended experiments, all solvents were mutually saturated at 21°C. […] For saturation, large stock bottles containing n-octanol and 12% of water/buffer or water/buffer and 12% of n-octanol were shaken for 30 mins on a mechanical shaker and subsequently left to stand on the bench overnight until the phases separated. Approximately 0.50 mg of tested substance was added to the test vessels alongside with 1:1 volume ratio of saturated solvents (250 μL). The test vessels were shaken on the mechanical shaker (Multi Reax, Heidolph Instruments, Schwabach, Germany) for 30 min at the highest speed and then centrifuged for phase separation (16.873 × g for 5 min; Eppendorf 5418 Microcentrifuge, Prague, Czech Republic). Both organic and aqueous phases were sampled for LC-MS analysis. UHPLC-DAD-MS (UHPLC Infinity II 1290, detection by DAD and QqQ 6470; Agilent Technologies, CA, USA; separation on Arion C18 polar column 100 × 2.1 mm, 2.1 μm; Chromservis, Czech Republic) was used for determination of the exact concentration of tested substances. The total quantity of substance (in both phases) was used for logP/logD values calculation.

[3] = CNS MPO desirability score
Method: ACDLAbs PhysChem Suite 14.0 software (Advanced Chemistry Development, Inc., Toronto, ON, Canada) was used for the calculation of Mw, tPSA, and HBD values. The CNS MPO score calculation method was described by [Wager et al. (2016)].
Central nervous system multiparameter optimization desirability score was calculated as described by [Wager et al. (2016)], utilizing all collected experimental and calculated data. This scoring tool was set on ranges of desirable property space and linear transformational functions with values between 0 and 1 (defined as T0 for each property). Rating each parameter equally, the collective score ranges from 0 to 6, while a score higher than 4 is desirable ([Rankovic, 2015]).

[4] = Solubility by nephelometry (water, buffer pH 7.4); format: physicochemical; details: for solubility at 30 s: medium not told apart (water and buffer pH 7.4)
Method: Compounds’ solubility was measured by the NEPHELOstar microplate instrument (BMG Labtech, Offenburg, Germany). Stock solutions were prepared by dissolving the tested compounds in ultrapure water or sodium phosphate buffer (pH 7.4) to obtain a concentration of 160 and 1,000 μg/mL. Each stock solution was sonicated at full power by Hielscher UP100H needle ultrasonic processor (Teltow, Germany) before loading into NEPHELOstar instrument injector A. Ultrapure water or sodium phosphate buffer was loaded into injector B. Compound was diluted in 48 wells in 0–160 or 0–1,000 μg/mL range and subsequently shook for 30 s. Each well was scanned with 80% laser power in matrix 3 × 3, beam width 2 mm, and obtained data were evaluated in GraphPad Prism 7.03 (GraphPad Software, San Diego, CA, USA) using segmental linear regression.

BJ, RPE-1 and U373 cells = assay: Crystal violet and resazurin proliferation screen in proliferating cells; format: cell-based, human; details: RPE-1, U373, 0, 10, 50, 80, 100 μM, 24 h
Method: All cell lines used in the study were obtained from the American Type Culture Collection (ATCC, Manassas, VA, USA). Human telomerase-immortalized retinal pigment epithelial cells RPE-1, glioblastoma U-87 MG, glioblastoma U373MG, glioblastoma T98G, glioblastoma A-172, breast adenocarcinoma MDA-MB-231, prostate carcinoma DU-145, and non-small cell lung cancer NCI-H1299 cell lines were cultured in Dulbecco’s modified Eagle’s medium (DMEM, Thermo Fisher Scientific, Waltham, MA, USA) with high glucose (4.5 g/L). Primary human skin BJ fibroblasts were cultured in Dulbecco’s modified Eagle’s medium (DMEM, Thermo Fisher Scientific, Waltham, MA, USA) with low glucose (1 g/L). Both cell culture media were supplemented with 10% fetal bovine serum (FBS, Gibco/Thermo Fisher Scientific) and non-essential amino acids (NEAA), 100 units/mL of penicillin, and 100 μg/mL of streptomycin (Sigma-Aldrich). Cells were kept at 37°C under a 5% CO2 atmosphere and 95% humidity.
(§1) Twenty-four hours before treatment, cells were plated in 96-well plates at densities of 2,850 cells per well for senescent RPE-1 (IR-RPE-1), 3,350 cells per well for proliferating RPE-1 and senescent BJ (DIS-BJ), and 5,000 cells per well for U373, T98, A172, U87, TMZ-U87, and proliferating BJ cells.
(§2) For the crystal violet assay, the cells were washed twice with 150 μL PBS and stained with 30 μL 0.5% (w/v) crystal violet in 20% methanol for 15 mins. Next, the plates were washed five times with ddH2O and left to dry overnight. Crystal violet was solubilized with 75 μL 0.2% Triton X-100 (Sigma) in PBS for 15 mins. The absorbance was read at 595 nm using a microplate reader (Envision, PerkinElmer, Waltham, MA, USA). The absorbance of crystal violet in treated cells was expressed as a percentage of absorbance in untreated cells. Each condition was measured at least in triplicate.
For the resazurin assay, 200 μL of the culture medium of each well was exchanged for 100 μL of resazurin (stock solution 30 mg/mL; Sigma, St. Louis, MO, USA) diluted 10 times in the culture medium, and the cells were incubated at 37°C for 1–3 h. Reading of fluorescence was done using a microplate reader (PerkinElmer, Waltham, MA, USA). Absolute values of fluorescence were related to the values of untreated cells. Each condition was measured at least in triplicate.

[5] = system: IR-induced senescent RPE-1 cells; assay: Crystal violet and resazurin assays in IR-induced senescent RPE-1; format: cell-based, human; details: γ-irradiated RPE-1; crystal violet readout only
Method: To obtain ionizing radiation (IR)-induced senescent cells, proliferating RPE-1 cells were exposed to a single dose of X-rays (20 Gy) using Pantak HF160 (Gulmay, Surrey, UK) X-ray instrument equipped with Pantak Seifert HF320 generator, MXR-161 X-ray tube (Comet AG, Flamatt, Switzerland), and an aluminum filter using current 1–10 mA. After irradiation, the cells were cultured for an additional 7 days until the development of the senescent phenotype ([Salovska et al., 2022]). To induce docetaxel-induced senescence (DIS), BJ cells were exposed to 5 nM docetaxel for 7 days, as described previously ([Sapega et al., 2018]). To prepare temozolomide (TMZ)-induced senescence, U87 cells were exposed to 100 μM TMZ for 14 days.
as §1, §2
For the resazurin assay, 200 μL of the culture medium of each well was exchanged for 100 μL of resazurin (stock solution 30 mg/mL; Sigma, St. Louis, MO, USA) diluted 10 times in the culture medium, and the cells were incubated at 37°C for 1–3 h. Reading of fluorescence was done using a microplate reader (PerkinElmer, Waltham, MA, USA). Absolute values of fluorescence were related to the values of untreated cells. Each condition was measured at least in triplicate. […]

[6] = from experimental and calculated data, method of Wager et al. (2016), scale 0-6
[7] = aqueous buffer, sodium phosphate buffer pH 7.4, nephelometry, read-out: Sol. (buffer 7.4)
[8] = ultrapure water, nephelometry, read-out: Sol. (H2O)
[9] = n-octanol/sodium phosphate buffer, pH 7.4, shake-flask, read-out: logD
[10] = sodium phosphate buffer pH 7.4, nephelometry

SMILES	pKa ([1]; read-out: pKa1)	logD ([2]; shake-flask)	logP ([2]; shake-flask)	MPO (CNS MPO score) [3, 6]	solubility kinetic at 30 s [4, 7]	solubility kinetic at 30 s [4, 8]	logSH2O ([4]; water)	effect on the readout of crystal violet and resazurin assays (BJ, RPE-1 and U373 cells)	melting point	logSpH 7.4 ([4]; buffer pH 7.4)	solubility at 30 s [4]	logD [2, 9]	logP ([2]; shake-flask, read-out: logP)	Sol. (buffer 7.4) [4, 10]	Sol. (H2O) ([4]; ultrapure water, nephelometry)	other results
c1ccc2[nH]c(NC3CCNCC3)nc2c1 [Compound 1, N-(piperidine-4-yl)-1H-benzo[d]imidazol-2-amine]	6.18 ± 0.04	0.85 ± 0.03	1.86 ± 0.07	5.2	> 160 µg/mL	33.3 µg/mL (≈ 154 µM)	−3.81	mild (although sometimes statistically significant) suppressive effect	227 to 229 °C							
Br.Br.c1ccc2[nH]c(NC3CCNCC3)nc2c1 [Compound 2, N-(piperidin-4-yl)-1H-benzo[d]imidazol-2-amine dihydrobromide]		−0.89 ± 0.11	−1.01 ± 0.01	4.9	299 µg/mL	> 1000 µg/mL	>−2.58	mild (although sometimes statistically significant) suppressive effect	275 to 277 °C	−3.10	> 1000 µg/mL					pKa1 [1]: 6.08 ± 0.08
NC(=O)[C@@H]1CC[C@H](C(=O)O)N1 [Compound 4]	3.17 ± 0.09			4.9	> 1000 µg/mL	> 1000 µg/mL	>−2.20	mild (although sometimes statistically significant) suppressive effect		>−2.20	> 1000 µg/mL	-2.82 ± 0.22	-2.89 ± 0.16			pKa ([1]; read-out: pKa2): 7.8 ± 0.11
COc1ccc(CN2CCNC2=N)cc1OC [Compound 5]								no effect				-1.78 ± 0.08	-1.79 ± 0.04			MPO (CNS MPO score) ([3]; experimental pKa unknown: calculated with T0(pKa) equal to zero): 4.5^a; logSH2O ([4]; 30 s): >−3.36; logSpH 7.4 ([4]; 30 s, pH 7.4): >−3.36; solubility kinetic at 30 s ([4]; pH 7.4, aqueous buffer): > 160 µg/mL; solubility kinetic at 30 s ([4]; water): > 160 µg/mL; selectivity for senescent versus proliferating cells [5]: mild but selective effect
CN(C)c1cccc(-c2cccc(C(N)=O)c2)c1 [Compound 6, 3’-(Dimethylamino)-[1,1’-biphenyl]-3-carboxamide]	4.8 ± 0.06			5	< 6 µg/mL	< 6 µg/mL	<−4.60	mild (although sometimes statistically significant) suppressive effect	104 to 106 °C	<−4.60		2.91 ± 0.01	2.86 ± 0.01	lower than 6 μg/mL	lower than 6 μg/mL	
CO[C@H]1C[C@@H]2CC[C@@H](C)[C@@](O)(O2)C(=O)C(=O)N2CCCC[C@H]2C(=O)O[C@H]([C@H](C)C[C@@H]2CC[C@@H](O)[C@H](OC)C2)CC(=O)[C@H](C)/C=C(\C)[C@@H](O)[C@@H](OC)C(=O)[C@H](C)C[C@H](C)/C=C/C=C/C=C/1C [Rapamycin, rapamycin]	10.7 ± 0.21			0.7	< 6 µg/mL	< 6 µg/mL	<−5.18			<−5.18		4.63 ± 0.04	3.97 ± 0.03	lower than 6 μg/mL	lower than 6 μg/mL	logSpH 7.4 ([4]; buffer pH 7.4, listed as rapamycin): < −4.60; logSH2O ([4]; water, listed as rapamycin): < −4.60
